# Experimental data taken from patent US8846928B2 (Portola Pharmaceuticals, Inc., priority 2010, dated 2014).
# Molecular target: T1, full length active recombinant SYK enzyme (Homo sapiens, UniProt P43405)
# T1 construct: full length active recombinant SYK enzyme (Millipore, Calif.); purchased Millipore
# Experiment: Inhibition of Syk tyrosine phosphorylation activity (LANCE TR-FRET kinase assay)
# Format: biochemical
row,Structure (SMILES),IC50 [nM]
1,"CC[C@@H](Nc1nc(Nc2cccc(OC(F)F)c2)c(C(N)=O)cc1F)C(N)=O [Example 264, (R)-6-(1-amino-1-oxobutan-2-ylamino)-5-fluoro-2-(3-(difluoromethoxy)phenylamino)nicotinamide]",100 to 1000
2,"NC(=O)c1cc(F)c(N[C@@H]2CCCC[C@@H]2N)nc1Nc1cncc(F)c1 [Example 89, 6-((1R,2S)-2-aminocyclohexylamino)-5-fluoro-2-(5-fluoropyridin-3-ylamino)nicotinamide]",1 to 10
3,"CC[C@@H](Nc1ccc(C(N)=O)c(Nc2ccc3cccnc3c2)n1)C(N)=O [Example 204, (R)-6-(1-amino-1-oxobutan-2-ylamino)-2-(quinolin-7-ylamino)nicotinamide]",10 to 100
4,"NC(=O)c1cc(F)c(N[C@H]2[C@@H](N)CCCC2(F)F)nc1Nc1cccc(-n2cccn2)c1 [Example 341, 2-(3-(1H-pyrazol-1-yl)phenylamino)-6-((1S,6S)-6-amino-2,2-difluorocyclohexylamino)-5-fluoronicotinamide]",1 to 10
5,"Cc1cc(Nc2cc(N[C@@H](C(N)=O)c3ccccc3)ccc2C(N)=O)sn1 [Example 18, (R)-4-(2-amino-2-oxo-1-phenylethylamino)-2-(3-methylisothiazol-5-ylamino)benzamide]",100 to 1000
6,"NC(=O)c1cc(F)c(N[C@@H]2CCCC[C@@H]2N)nc1Nc1cccnc1 [Example 174, 6-((1R,2S)-2-aminocyclohexylamino)-5-fluoro-2-(pyridin-3-ylamino)nicotinamide]",1 to 10
7,"CC(C)[C@@H](Nc1nc(Nc2cccc(-n3nccn3)c2)c(C(N)=O)cc1C#N)C(N)=O [Example 126, (R)-2-(3-(2H-1,2,3-triazol-2-yl)phenylamino)-6-(1-amino-3-methyl-1-oxobutan-2-ylamino)-5-cyanonicotinamide]",> 1000
8,"Cc1cncc(Nc2nc(NC[C@H](C)N)c(F)cc2C(N)=O)c1 [Example 260, (S)-2-(5-methylpyridin-3-ylamino)-6-(2-aminopropylamino)-5-fluoronicotinamide]",10 to 100
9,NC(=O)c1cc(F)c(N[C@@H]2CCCC[C@@H]2N)nc1Nc1csc2ncccc12 [Example 393],1 to 10
10,"NC(=O)c1cc(F)c(N[C@@H]2CCCC[C@@H]2N)nc1Nc1cccc(-c2ccncn2)c1 [Example 56, 6-((1R,2S)-2-aminocyclohexylamino)-5-fluoro-2-(3-(pyrimidin-4-yl)phenylamino)nicotinamide]",1 to 10
11,"CC[C@@H](Nc1ccc(C(N)=O)c(Nc2cnc3ccccc3c2)n1)C(N)=O [Example 203, (R)-6-(1-amino-1-oxobutan-2-ylamino)-2-(quinolin-3-ylamino)nicotinamide]",1 to 10
12,"CCC[C@@H](Nc1nc(Nc2cc(C)ns2)c(C(N)=O)cc1F)C(N)=O [Example 202, (R)-6-(1-amino-1-oxopentan-2-ylamino)-5-fluoro-2-(3-methylisothiazol-5-ylamino)nicotinamide]",10 to 100
13,"Cc1cccc(Nc2nc(NC[C@@H](N)CC(F)F)c(F)cc2C(N)=O)c1 [Example 380, (S)-2-(m-toluidino)-6-(2-amino-4,4-difluorobutylamino)-5-fluoronicotinamide]",10 to 100
14,NC(=O)c1cc(F)c(N[C@@H]2CCCC[C@@H]2N)nc1Nc1ccncc1 [Example 175],10 to 100
15,"COC[C@@H](Nc1cc(Nc2cc(C)ns2)c(C(N)=O)cc1F)C(N)=O [Example 40, (R)-4-(1-amino-3-methoxy-1-oxopropan-2-ylamino)-5-fluoro-2-(3-methylisothiazol-5-ylamino)benzamide]",10 to 100
16,"NC(=O)c1ccc(N[C@@H]2CCCC[C@@H]2N)nc1Nc1cccc(-n2cccn2)c1 [Example 192, 2-(3-(1H-pyrazol-1-yl)phenylamino)-6-((1R,2S)-2-aminocyclohexylamino)nicotinamide]",1 to 10
17,"CC(C)C[C@H](CN)Nc1nc(Nc2cccc(-n3nccn3)c2)c(C(N)=O)cc1C#N [Example 110, (R)-2-(3-(2H-1,2,3-triazol-2-yl)phenylamino)-6-(1-amino-4-methylpentan-2-ylamino)-5-cyanonicotinamide]",1 to 10
18,"CC[C@@H](Nc1ccc(C(N)=O)c(Nc2cccc3c2ccn3C)n1)C(N)=O [Example 209, (R)-6-(1-amino-1-oxobutan-2-ylamino)-2-(1-methyl-1H-indol-4-ylamino)nicotinamide]",10 to 100
19,"Cc1cccc(Nc2nc(N[C@@H]3CCCC[C@@H]3N)ccc2C(N)=O)c1 [Example 102, 6-((1R,2S)-2-aminocyclohexylamino)-2-(m-tolylamino)nicotinamide]",1 to 10
20,"Cc1cc(Nc2nc(N[C@@H]3CCCC(F)(F)[C@@H]3N)c(F)cc2C(N)=O)sn1 [Example 333, 6-((1R,2R)-2-amino-3,3-difluorocyclohexylamino)-5-fluoro-2-(3-methylisothiazol-5-ylamino)nicotinamide]",100 to 1000
21,"NC(=O)c1cnc(N[C@@H]2CCCC[C@@H]2N)cc1Nc1cnn2ccccc12 [Example 421, 6-((1R,2S)-2-aminocyclohexylamino)-4-(pyrazolo[1,5-a]pyridin-3-ylamino)nicotinamide]",> 1000

row,Structure (SMILES),IC50 [nM]
1,"CC[C@@H](Nc1cc(Nc2cc(C)ns2)c(C(N)=O)cc1F)C(N)=O [Example 26, (R)-4-(1-amino-1-oxobutan-2-ylamino)-5-fluoro-2-(3-methylisothiazol-5-ylamino)benzamide]",10 to 100
2,"NC(=O)c1cc(F)c(N[C@@H]2CCCC(F)(F)[C@@H]2N)nc1Nc1cc(F)cc(F)c1 [Example 337, 6-((1R,2R)-2-amino-3,3-difluorocyclohexylamino)-2-(3,5-difluorophenylamino)-5-fluoronicotinamide]",100 to 1000
3,"NC(=O)c1cc(F)c(N[C@@H]2CCCC[C@@H]2N)nc1Nc1ccc(-n2cccn2)cc1 [Example 52, 2-(4-(1H-pyrazol-1-yl)phenylamino)-6-((1R,2S)-2-aminocyclohexylamino)-5-fluoronicotinamide]",1 to 10
4,"Cc1ccccc1Nc1nc(N[C@@H]2CCCC[C@@H]2N)c(F)cc1C(N)=O [Example 313, 6-((1R,2S)-2-aminocyclohexylamino)-5-fluoro-2-(o-tolylamino)nicotinamide]",10 to 100
5,"NC(=O)c1cc(F)c(N[C@H]2[C@@H](N)CCCC2(F)F)nc1Nc1ccc2ncsc2c1 [Example 345, 6-((1S,6S)-6-amino-2,2-difluorocyclohexylamino)-2-(benzo[d]thiazol-6-ylamino)-5-fluoronicotinamide]",1 to 10
6,CC[C@@H](Nc1nc(Nc2ccc3ncccc3c2)c(C(N)=O)cc1F)C(N)=O [Example 100],10 to 100
7,"COc1cc(F)cc(Nc2nc(N[C@@H]3CCCC(F)(F)[C@@H]3N)c(F)cc2C(N)=O)c1 [Example 338, 6-((1R,2R)-2-amino-3,3-difluorocyclohexylamino)-5-fluoro-2-(3-fluoro-5-methoxyphenylamino)nicotinamide]",100 to 1000
8,"Cc1cc(Nc2cc(N[C@H](CO)C(N)=O)ccc2C(N)=O)sn1 [Example 16, (R)-4-(1-amino-3-hydroxy-1-oxopropan-2-ylamino)-2-(3-methylisothiazol-5-ylamino)benzamide]",100 to 1000
9,"NC(=O)c1cc(F)c(N[C@@H]2CCNC2)nc1Nc1ccc2ncccc2c1 [Example 351, (R)-5-fluoro-6-(pyrrolidin-3-ylamino)-2-(quinolin-6-ylamino)nicotinamide]",10 to 100
10,"CC(C)C[C@@H](Nc1nc(Nc2ccc3cccnc3c2)c(C(N)=O)cc1F)C(N)=O [Example 246, (R)-6-(1-amino-4-methyl-1-oxopentan-2-ylamino)-5-fluoro-2-(quinolin-7-ylamino)nicotinamide]",10 to 100
11,"CC[C@@H](Nc1nc(Nc2cc(C)ns2)c(C(N)=O)cc1F)C(N)=O [Example 239, (R)-6-(1-amino-1-oxobutan-2-ylamino)-5-fluoro-2-(3-methylisothiazol-5-ylamino)nicotinamide]",10 to 100
12,NC(=O)c1ccc(N[C@@H]2CCCC[C@@H]2N)cc1Nc1cccc(-n2nccn2)c1 [Example 5],100 to 1000
13,"NC(=O)c1cc(F)c(N[C@@H]2CCOC[C@@H]2N)nc1Nc1ccc2ncsc2c1 [Example 384, 6-((3R,4R)-3-aminotetrahydro-2H-pyran-4-ylamino)-2-(benzo[d]thiazol-6-ylamino)-5-fluoronicotinamide]",1 to 10
14,"C[C@H](CN)Nc1nc(Nc2cccc(-n3nccn3)c2)c(C(N)=O)cc1C#N [Example 109, (R)-2-(3-(2H-1,2,3-triazol-2-yl)phenylamino)-6-(1-aminopropan-2-ylamino)-5-cyanonicotinamide]",10 to 100
15,"CC(C)C[C@H](CN)Nc1nc(Nc2ccc3ncsc3c2)c(C(N)=O)cc1C#N [Example 123, (R)-6-(1-amino-4-methylpentan-2-ylamino)-2-(benzo[d]thiazol-6-ylamino)-5-cyanonicotinamide]",1 to 10
16,"Cc1cc(Nc2nc(N[C@H](CC3CC3)C(N)=O)c(F)cc2C(N)=O)sn1 [Example 253, (R)-6-(1-amino-3-cyclopropyl-1-oxopropan-2-ylamino)-5-fluoro-2-(3-methylisothiazol-5-ylamino)nicotinamide]",10 to 100
17,"NC(=O)c1cc(F)c(N[C@@H]2CCCC[C@@H]2N)nc1Nc1cccc(-c2ncccn2)c1 [Example 55, 6-((1R,2S)-2-aminocyclohexylamino)-5-fluoro-2-(3-(pyrimidin-2-yl)phenylamino)nicotinamide]",1 to 10
18,"CC(C)C[C@@H](Nc1nc(Nc2cnc3ccccc3c2)c(C(N)=O)cc1F)C(N)=O [Example 247, (R)-6-(1-amino-4-methyl-1-oxopentan-2-ylamino)-5-fluoro-2-(quinolin-3-ylamino)nicotinamide]",10 to 100
19,"Cc1cc(Nc2nc(N[C@H](CC3CC3)C(N)=O)ccc2C(N)=O)sn1 [Example 211, (R)-6-(1-amino-3-cyclopropyl-1-oxopropan-2-ylamino)-2-(3-methylisothiazol-5-ylamino)nicotinamide]",10 to 100
20,NC(=O)c1cc(F)c(N[C@H]2[C@@H](N)CCCC2(F)F)nc1Nc1cccc(-n2nccn2)c1 [Example 340],1 to 10
